Assay results from patent US20240270748A1 (Merck Patent GmbH, priority 2021, published 2024).

Assays:
[1] = test system: SW620 Yap KO cells; assay: Viability assay in SW620 Yap KO (Yap independent) cells, CyQuant; format: cell-based
Experimental: (§1) Viability Assay in NCI-H226 (Yap-Dependent) and SW620 Yap KO (Yap Independent) Cells
(§2) The ability of YAP-TEAD inhibitors to inhibit tumor cell growth was evaluated using two different cell lines: NCI-H226, which is a YAP dependent cell line, and SW620 cells, where YAP and TAZ were knocked out using CRISPR to generate a YAP independent cell line.
(§3) For the assay, cells were treated in duplicates with the test compounds in a 10-point dose, 1:3 dilution steps, with the top concentration starting at 30 μM (final concentration in assay). After a 96 hour incubation at 37° C., 95% rH, and 5% CO2, a cell-permeant DNA-binding dye that stains only healthy cells (CyQUANT®, Promega) was added to the cells, allowing the quantification of cell viability.
(§4) Cell Media: The NCI-H226 cells were cultured in the following media: RPMI 1640, +10% FBS, +1× GlutaMAX, +10 mM HEPES, +0.5% Pen/Strep. The SW620-KO cells were cultured in the following media: DMEM/F-12, +10% FBS, +1× GlutaMAX, +10 mM HEPES, +0.5% Pen/Strep.
(§5) Reagents: The reagents used are listed below:
(§6) Cell culture: The cells were examined using an inverted microscope to check for health, cell density, etc. To dissociate adherent cells, the monolayer of cells was washed once with pre-warmed PBS. After removing the PBS, 3 ml pre-warmed Accutase was added to a F75 flask, dispersed evenly and the flask was allowed to sit in incubator for ˜4-5 minutes.
(§7) When a single cell suspension was obtained, 7 ml of prewarmed growth media was added and resuspended with the cells. The cell suspension was transferred to a sterile 15 ml conical centrifuge tube, and spun for 5 min at 300×g, RT. The supernatant was discarded and the pellet was resuspended in 10 ml of pre-warmed growth media.
(§8) The total cell count was determined, and 20 μl of the desired cell number was added to each well of a 384 well plate using a Multidrop Combi. The plates were then incubated for 24 hours at 37° C., 95% rH, and 5% CO2.
(§9) Compound treatment: 24 hours after seeding, the cells were treated with compounds.
(§10) A 1:333 dilution of compounds, diluted in DMSO, was made to get a final concentration of 0.3% DMSO per well. To transfer the compounds to the assay plate, […] was shot from Labcyte low dead volume plates to the cell plates containing 20 μl media/well with the ECHO 555 liquid handling system.
(§11) After treatment, the cells were fed with 20 μl fresh pre-warmed assay media using a Multidrop combi.
(§12) The assay plates were then incubated for 96 h at 37° C., 95% rH, and 5% CO2.
(§13) 96 h after treatment 30 μl of CyQuant® reagent was added to the assay plates using a Multidrop combi in the dark. The plates were then incubated for 1 hour at 37° C., 95% rH and 5% CO2. Thereafter, the assay plates were removed from the incubator and allowed to equilibrate to RT for 30 min in the dark without lid. Finally, they were measured using an EnVision microplate reader with a FITC bottom read program.

[2] = test system: NCI-H226 cells; assay: Viability assay in NCI-H226 (Yap-dependent) cells, CyQuant; format: cell-based, human
Experimental: as §1, §2, §3, §4, §5, §6, §7, §8, §9, §10, §11, §12, §13

[3] = test system: YAP-TEAD interaction; assay: SK-HEP-1 reporter assay (8xTEAD responsive elements driving NanoLuc luciferase); format: cell-based
Outline: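 Reporter read-out: NanoLuc luminescence from 8×TEAD elements stably integrated in SK-HEP-1 cells, after 24 h compound exposure at 37° C. Ten concentrations tested in duplicate, top 30 μM final, 0.3% DMSO; IC50 from curve.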

[4] = Homo sapiens, SW-620, 96 h, n.d. = value not detectable below threshold given in parentheses
[5] = Homo sapiens, NCI-H226, 96 h, class symbols
[6] = Homo sapiens, SK-HEP1, SK-HEP-1 reporter assay, class symbols
[7] = Homo sapiens, SW-620, 96 h, n.d. = value not detectable below threshold given in parentheses, ND = not determinable within the entire range
[8] = Homo sapiens, SW-620, 96 h, class symbols

| IC50 [1, 4] [nM] | IC50 [2, 5] [nM] | IC50 [3, 6] [nM] | IC50 [1, 7] [nM] | Compound | also measured |
| --- | --- | --- | --- | --- | --- |
| – | 1 to 100 | 10 to 100 | > 30000 | CON(C)C(=O)c1ccc2c(c1)c1cn(C)nc1n2-c1ccc(C(F)(F)F)cc1 [Example C156, N-methoxy-N,2-dimethyl-8-[4-(trifluoromethyl)phenyl]-2H,8H-pyrazolo[3,4-b]indole-5-carboxamide] | – |
| – | 1 to 100 | 10 to 100 | > 3200 | Cc1snc2c1c1cc(C(=O)N[C@H](c3ccccc3)[C@H](C)O)ccc1n2-c1ccc(C(F)(F)F)cc1 [Example C81, N-[(1R,2S)-2-hydroxy-1-phenylpropyl]-3-methyl-8-[4-(trifluoromethyl)phenyl]-8H-[1,2]thiazolo[3,4-b]indole-5-carboxamide] | – |
| > 3000 | 1 to 100 | 10 to 100 | – | Cn1cnc2c1c1cc(C3CC(Cl)=NO3)ccc1n2-c1ccc(C(F)(F)F)cc1 (stereo not drawn) [Example C198, 3-chloro-5-{1-methyl-4-[4-(trifluoromethyl)phenyl]-1H,4H-imidazo[4,5-b]indol-7-yl}-4,5-dihydro-1,2-oxazole] | – |
| – | 1 to 100 | 10 to 100 | > 30000 | C[C@H](NC(=O)c1ccc2c(c1)c1cn(C)nc1n2-c1ccc(C(F)(F)F)cc1)c1ccccn1 [Example C105, 2-methyl-N-[(1S)-1-(pyridin-2-yl)ethyl]-8-[4-(trifluoromethyl)phenyl]-2H,8H-pyrazolo[3,4-b]indole-5-carboxamide] | – |
| – | 1 to 100 | 10 to 100 | > 3200 | Cc1snc2c1c1cc(C(=O)N[C@H](C)CO)ccc1n2-c1ccc(C(F)(F)F)cc1 [Example C66, N-[(2R)-1-hydroxypropan-2-yl]-3-methyl-8-[4-(trifluoromethyl)phenyl]-8H-[1,2]thiazolo[3,4-b]indole-5-carboxamide] | – |
| – | 1 to 100 | 10 to 100 | > 30000 | Cc1snc2c1c1cc(C(N)=O)ccc1n2-c1ccc(C(F)(F)F)cc1 [Example C120, 3-methyl-8-[4-(trifluoromethyl)phenyl]-8H-[1,2]thiazolo[3,4-b]indole-5-carboxamide] | – |
| > 30000 | 1 to 100 | 10 to 100 | – | Cn1cc2c3cc(C(=O)N[C@@H](CO)c4ccccn4)ccc3n(-c3ccc(C(F)F)cc3)c2n1 [Example C248, 8-[4-(difluoromethyl)phenyl]-N-[(1R)-2-hydroxy-1-(pyridin-2-yl)ethyl]-2-methyl-2H,8H-pyrazolo[3,4-b]indole-5-carboxamide] | – |
| – | 1 to 100 | 10 to 100 | > 30000 | CNC(=O)c1ccc2c(c1)c1cn(C)nc1n2-c1ccc(C(F)(F)F)cn1 [Example C147, N,2-dimethyl-8-[5-(trifluoromethyl)pyridin-2-yl]-2H,8H-pyrazolo[3,4-b]indole-5-carboxamide] | – |
| – | 100 to 1000 | 10 to 100 | > 30000 | O=C(O)c1ccc2c(c1)c1cn(C3CCCCO3)nc1n2-c1ccc(C(F)(F)F)cc1 (stereo not drawn) [Example C10, 2-(oxan-2-yl)-8-[4-(trifluoromethyl)phenyl]-2H,8H-pyrazolo[3,4-b]indole-5-carboxylic acid] | – |
| > 30000 | 100 to 1000 | 10 to 100 | – | Cn1nc2c3cc(C(=O)N[C@H](CO)c4ccccn4)ccc3n(-c3ccc(C(F)(F)F)cc3)c2n1 [Example C249, N-[(1S)-2-hydroxy-1-(pyridin-2-yl)ethyl]-2-methyl-4-[4-(trifluoromethyl)phenyl]-2H,4H-[1,2,3]triazolo[4,5-b]indole-7-carboxamide] | – |
| – | 100 to 1000 | 100 to 10000 | > 30000 | Cn1cc2c3cc(C4CC(Oc5cncnc5)=NO4)ccc3n(-c3ccc(C(F)(F)F)cc3)c2n1 (stereo not drawn) [Example C50, 5-[(5-{2-methyl-8-[4-(trifluoromethyl)phenyl]-2H,8H-pyrazolo[3,4-b]indol-5-yl}-4,5-dihydro-1,2-oxazol-3-yl)oxy]pyrimidine] | – |
| – | 1 to 100 | 10 to 100 | – | Cc1c2c3cc(C(=O)N[C@@H](CO)c4ccccn4)ccc3n(-c3ccc(C(F)(F)F)cc3)c2nn1C [Example C99, N-[(1R)-2-hydroxy-1-(pyridin-2-yl)ethyl]-2,3-dimethyl-8-[4-(trifluoromethyl)phenyl]-2H,8H-pyrazolo[3,4-b]indole-5-carboxamide] | IC50 [1, 8]: 10000 to 30000 nM |

Second part, the compound before the results:

| Compound | IC50 [1, 4] [nM] | IC50 [2, 5] [nM] | IC50 [3, 6] [nM] | IC50 [1, 7] [nM] | also measured |
| --- | --- | --- | --- | --- | --- |
| [2H]C1([2H])C(n2c3ccc(C(=O)N[C@@H](CO)c4ccccn4)cc3c3cn(C)nc32)C([2H])([2H])C([2H])([2H])C([2H])([2H])C1([2H])[2H] [Example C196, 8-[(2,2,3,3,4,4,5,5,6,6-^2H10)cyclohexyl]-N-[(1R)-2-hydroxy-1-(pyridin-2-yl)ethyl]-2-methyl-2H,8H-pyrazolo[3,4-b]indole-5-carboxamide] | > 30000 | 100 to 1000 | 100 to 10000 | – | – |
| Cn1cc2c3cc(C(=O)N=[S@](=O)(CCCO)Cc4cccnc4)ccc3n(-c3ccc(C(F)(F)F)cc3)c2n1 (single isomer, unassigned) [Example C201] | – | 100 to 1000 | – | – | IC50 [1, 8]: 1000 to 10000 nM; IC50 ([3]; Homo sapiens, SK-HEP1, SK-HEP-1 reporter assay, n.d. = value not detectable below threshold given in parentheses): > 300 nM |
| [2H]C1([2H])C(n2c3ccc(C(=O)O)cc3c3cn(C)nc32)C([2H])([2H])C([2H])([2H])C([2H])([2H])C1([2H])[2H] [Example C193, 8-[(2,2,3,3,4,4,5,5,6,6-^2H10)cyclohexyl]-2-methyl-2H,8H-pyrazolo[3,4-b]indole-5-carboxylic acid] | > 30000 | – | 100 to 10000 | – | IC50 ([2]; Homo sapiens, NCI-H226, 96 h, n.d. = value not detectable below threshold given in parentheses): > 30000 nM |
| Cc1c2c3cc(C(=O)O)ccc3n(-c3ccc(C(F)(F)F)cc3)c2nn1C [Example C95, 2,3-dimethyl-8-[4-(trifluoromethyl)phenyl]-2H,8H-pyrazolo[3,4-b]indole-5-carboxylic acid] | – | 1 to 100 | 10 to 100 | > 30000 | – |
| Cn1cc2c3cc(C(=O)N=[S@](=O)(CCCO)Cc4ccccn4)ccc3n(-c3ccc(C(F)(F)F)cc3)c2n1 (single isomer, unassigned) [Example C213] | > 3000 | – | – | – | IC50 ([2]; 96 h, class symbols): 1 to 100 nM; IC50 ([3]; SK-HEP-1 reporter assay, n.d. = value not detectable below threshold given in parentheses): > 300 nM |
| Cn1cc2c3cc(C(=O)NC(CCO)c4ccccn4)ccc3n(-c3ccc(C(F)(F)F)cc3)c2n1 (stereo not drawn) [Example C225, N-[3-hydroxy-1-(pyridin-2-yl)propyl]-2-methyl-8-[4-(trifluoromethyl)phenyl]-2H,8H-pyrazolo[3,4-b]indole-5-carboxamide] | > 30000 | 1 to 100 | 10 to 100 | – | – |
| Cn1cc2c3cc(C(=O)NCc4ccncc4)ccc3n(-c3ccc(C(F)F)cc3)c2n1 [Example C209, 8-[4-(difluoromethyl)phenyl]-2-methyl-N-[(pyridin-4-yl)methyl]-2H,8H-pyrazolo[3,4-b]indole-5-carboxamide] | > 30000 | 100 to 1000 | 10 to 100 | – | – |
| CNC(=O)c1ccc2c(c1)c1c(C)snc1n2-c1ccc(C(F)(F)F)cc1 [Example C51, N,3-dimethyl-8-[4-(trifluoromethyl)phenyl]-8H-[1,2]thiazolo[3,4-b]indole-5-carboxamide] | – | 1 to 100 | 10 to 100 | – | IC50 [1, 8]: 1000 to 10000 nM |
| Cn1cc2c3cc(C(=O)NC(CO)c4ccccn4)ccc3n(-c3ccc(C(F)(F)F)nc3)c2n1 (single isomer, unassigned) [Example C124] | – | – | – | – | IC50 ([1]; 96 h, n.d. = value not detectable below threshold given in parentheses, ND = not determinable within the entire range): > 30000 nM; IC50 ([2]; 96 h, class symbols): 1000 to 10000 nM; IC50 ([3]; Homo sapiens, SK-HEP1, SK-HEP-1 reporter assay, n.d. = value not detectable below threshold given in parentheses, ND = not determinable within the entire range): > 30000 nM |
